# pIC50: −log10 of the molar value.
# System: FOXC2-expressing HMLER cells
# Experiment: Cell Titer Glo viability of FOXC2-HMLER cells (high throughput screen and 10-point response)
# Type: cell-based
# Conditions: Homo sapiens; scored relative to parent compound 1; 72 hours; read-out: Activity Score, inhibition of FOXC2-expressing HMLER cells by Formula I compounds
# Method in brief: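 Viability after 72 h compound exposure was measured as Cell Titer Glo luminescence. FOXC2-HMLER and parental HMLER cells, 1,000 per well in MEGM medium, were dosed 1 h after plating; screening concentration was 2 μM.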
row,SMILES,pIC50
1,Clc1cccc(N2CCN(c3cnc4ccccc4n3)CC2)c1 [Compound 1D],4.70 to 6.00
2,Fc1c(Cl)cc(N2CCN(c3cnnc4c(Cl)cccc34)CC2)cc1Cl [Compound 1SRI],4.70 to 6.00
3,Clc1cc(Cl)cc(N2CCN(c3cnnc4c(Cl)cccc34)CC2)c1 [Compound 1SRH],> 6.63
4,FC(F)(F)c1cccc(N2CCN(c3cnnc4c(Cl)cccc34)CC2)c1 [Compound 1SRP],4.70 to 6.00
5,Fc1c(Cl)cccc1N1CCN(c2cnnc3c(Cl)cccc23)CC1 [Compound 1SRK],4.70 to 6.00
6,N#Cc1cc(Cl)cc(N2CCN(c3cnnc4c(Cl)cccc34)CC2)c1 [Compound 1SRAK],> 6.00
7,Cc1c(S(=O)(=O)N2CCN(c3cnnc4c(Cl)cccc34)CC2)cnn1C(F)F [Compound 1SRAM],< 4.70
8,Clc1ccc2c(N3CCNCC3)ccnc2c1 [Compound 1G],< 4.70
9,Cc1ccc(-c2cc3c(N4CCN(c5ccccc5)CC4)nccn3n2)cc1C [Compound 1B],4.70 to 6.00

# Same assay, conditions: Homo sapiens; scored relative to parent compound 2; 72 hours; read-out: Activity Score, inhibition of FOXC2-expressing HMLER cells by Formula II compounds
row,SMILES,pIC50
1,COc1cc2cc(CNc3ccc(C)cc3)c(=O)n(CC(=O)Nc3ccccc3C)c2cc1OC [Compound 2FF],< 4.70
2,COc1ccc2cc(CNc3ccccc3)c(=O)n(CC(=O)Nc3cccc(C(F)(F)F)c3)c2c1 [Compound 2EE],< 4.70
3,COc1ccc2cc(CNc3ccccc3)c(=O)n(CC(=O)Nc3cccc(F)c3)c2c1 [Compound 2BR],< 4.70
4,COc1ccccc1NC(=O)Cn1c(=O)c(CNc2ccccc2)cc2ccc(C)cc21 [Compound 2DU],< 4.70
5,CCc1ccc(NCc2cc3cc4c(cc3n(CC(=O)Nc3ccc(OC)cc3)c2=O)OCCO4)cc1 [Compound 2AL],4.70 to 6.00
6,COc1ccc(NCc2cc3ccc(OC)cc3n(CC(=O)Nc3ccccc3C)c2=O)cc1 [Compound 2BV],< 4.70
7,COc1ccc2cc(CNc3ccccc3)c(=O)n(CC(=O)Nc3cccc(Cl)c3)c2c1 [Compound 2BX],< 4.70
8,COc1ccc(NCc2cc3cc(OC)c(OC)cc3n(CC(=O)Nc3ccccc3)c2=O)cc1 [Compound 2IB],< 4.70
9,COc1ccc2cc(CNc3ccccc3)c(=O)n(CC(=O)Nc3ccc(F)c(F)c3)c2c1 [Compound 2EJ],< 4.70
10,CCc1ccc(NCc2cc3ccc(OC)cc3n(CC(=O)Nc3ccc4c(c3)OCCO4)c2=O)cc1 [Compound 2FR],< 4.70
11,CCc1ccc(NCc2cc3ccc(OC)cc3n(CC(=O)Nc3ccc(C)cc3)c2=O)cc1 [Compound 2DT],< 4.70
12,COc1ccc2cc(CNc3ccccc3)c(=O)n(CC(=O)Nc3cc(C)ccc3C)c2c1 [Compound 2R],4.70 to 6.00
13,COc1ccc2cc(CNc3ccc(C)cc3)c(=O)n(CC(=O)Nc3cccc(Cl)c3)c2c1 [Compound 2HJ],< 4.70
14,COc1cc2cc(CNc3ccc(C)cc3)c(=O)n(CC(=O)Nc3ccccc3)c2cc1OC [Compound 2FU],< 4.70
15,COc1ccc2cc(CNc3ccccc3)c(=O)n(CC(=O)Nc3ccc(C(C)C)cc3)c2c1 [Compound 2DS],< 4.70
16,CCc1ccc(NC(=O)Cn2c(=O)c(CNc3ccc(OC)cc3)cc3ccc(OC)cc32)cc1 [Compound 2DL],< 4.70
17,COc1ccc(NCc2cc3ccc(OC)cc3n(CC(=O)Nc3cccc(Cl)c3)c2=O)cc1 [Compound 2EV],< 4.70
18,Cc1ccc(NCc2cc3cc4c(cc3n(CC(=O)Nc3ccc(C)cc3)c2=O)OCCO4)cc1 [Compound 2FW],< 4.70
19,COc1ccccc1NC(=O)Cn1c(=O)c(CNc2ccc(C)cc2)cc2cc(OC)c(OC)cc21 [Compound 2HS],< 4.70
20,CCc1ccc(NCc2cc3ccc(OC)cc3n(CC(=O)Nc3ccc(Cl)cc3)c2=O)cc1 [Compound 2GB],< 4.70

row,SMILES,pIC50
1,COc1ccc2cc(CNc3ccc(C)cc3)c(=O)n(CC(=O)Nc3ccc(F)cc3)c2c1 [Compound 2AH],4.70 to 6.00
2,COc1cccc(NC(=O)Cn2c(=O)c(CNc3ccc(C)cc3)cc3cc(OC)c(OC)cc32)c1 [Compound 2BU],< 4.70
3,COc1ccc2cc(CNc3ccccc3)c(=O)n(CC(=O)Nc3cccc(SC)c3)c2c1 [Compound 2FA],< 4.70
4,COc1ccc2cc(CNc3ccccc3)c(=O)n(CC(=O)Nc3ccc(Br)cc3)c2c1 [Compound 2BW],< 4.70
5,CCc1ccc(NCc2cc3ccc(OC)cc3n(CC(=O)Nc3ccccc3OC)c2=O)cc1 [Compound 2DV],< 4.70
6,CCc1ccc(NCc2cc3cc(OC)c(OC)cc3n(CC(=O)Nc3ccc(C)c(C)c3)c2=O)cc1 [Compound 2EC],< 4.70
7,CCc1ccc(NCc2cc3ccc(OC)cc3n(CC(=O)NCc3ccc(C)cc3)c2=O)cc1 [Compound 2DQ],< 4.70
8,CCOc1ccc(NC(=O)Cn2c(=O)c(CNc3ccccc3)cc3ccc(OC)cc32)cc1 [Compound 2II],< 4.70
9,COc1ccc(NCc2cc3ccc(C)cc3n(CC(=O)Nc3ccc(C)c(C)c3)c2=O)cc1OC [Compound 2HO],< 4.70
10,COc1ccc2cc(CNc3ccc(C)cc3)c(=O)n(CC(=O)Nc3ccccc3C)c2c1 [Compound 2GZ],< 4.70
11,COc1ccc2cc(CNc3ccc(C)cc3)c(=O)n(CC(=O)Nc3ccc(C)c(F)c3)c2c1 [Compound 2FI],< 4.70
12,COc1ccc2cc(CNc3ccccc3)c(=O)n(CC(=O)Nc3ccccc3)c2c1 [Compound 2DM],< 4.70
13,COc1ccc2cc(CNc3ccccc3)c(=O)n(CC(=O)NCc3ccccc3)c2c1 [Compound 2AU],< 4.70
14,CCOC(=O)c1ccc(NC(=O)Cn2c(=O)c(CNc3ccccc3)cc3ccc(OC)cc32)cc1 [Compound 2AQ],< 4.70
15,COc1cc(NC(=O)Cn2c(=O)c(CNc3ccccc3)cc3ccc(OC)cc32)cc(OC)c1 [Compound 2GV],< 4.70
16,COc1ccc2cc(CNc3ccc(C)cc3)c(=O)n(CC(=O)Nc3ccc(C)cc3Cl)c2c1 [Compound 2M],4.70 to 6.00
17,CCc1ccc(NCc2cc3ccc(OC)cc3n(CC(=O)NCc3ccccc3)c2=O)cc1 [Compound 2EA],< 4.70
18,CCc1ccccc1NC(=O)Cn1c(=O)c(CNc2ccccc2)cc2ccc(OC)cc21 [Compound 2BL],< 4.70
19,COc1ccc2cc(CNc3ccc(C)cc3)c(=O)n(CC(=O)NCc3ccc(C)cc3)c2c1 [Compound 2GP],< 4.70

# Same assay, conditions: Homo sapiens; scored relative to parent compound 3; 72 hours; read-out: Activity Score, inhibition of FOXC2-expressing HMLER cells by Formula III compounds
row,SMILES,pIC50
1,CN(Cc1ccccc1)C(=O)c1ccc(-n2nnc3cccnc32)cc1 [Compound 3AL],< 4.70
2,COc1cccc(N2CCN(C(=O)c3ccc(C)c(-n4nnc5cccnc54)c3)CC2)c1 [Compound 3U],4.70 to 6.00
3,Cc1c(C(=O)N2CCN(C3CCCCC3)CC2)cccc1-n1nnc2cccnc21 [Compound 3BP],< 4.70
4,O=C(c1cccc(-n2nnc3cccnc32)c1)N1CCN(C2CCCCC2)CC1 [Compound 3R],4.70 to 6.00
5,COc1ccc(N2CCN(C(=O)c3cccc(-n4nnc5cccnc54)c3)CC2)cc1 [Compound 3AZ],< 4.70
6,Cc1ccc(CN2CCC(CNC(=O)c3cccc(-n4nnc5cccnc54)c3)CC2)cc1 [Compound 3T],4.70 to 6.00
7,Cc1ccc(Cl)cc1N1CCN(C(=O)c2cccc(-n3nnc4cccnc43)c2C)CC1 [Compound 3AD],4.70 to 6.00
8,Cc1c(C(=O)NC2CC2)cccc1-n1nnc2cccnc21 [Compound 3AE],4.70 to 6.00
9,Cc1c(C(=O)NCCCN2CCN(C3CCCCC3)CC2)cccc1-n1nnc2cccnc21 [Compound 3CH],< 4.70
10,Cc1cc(C(=O)N2CCC(Cc3ccccc3)CC2)ccc1-n1nnc2cccnc21 [Compound 3M],4.70 to 6.00

# Same assay, conditions: Homo sapiens; scored relative to parent compound 4; 72 hours; read-out: Activity Score, inhibition of FOXC2-expressing HMLER cells by Formula IV compounds
row,SMILES,pIC50
1,Cc1ccc(-n2nc(C)c(S(=O)(=O)N3CCN(c4ccccc4)CC3)c2C)cc1 [Compound 4L],4.70 to 6.00
2,Cc1ccc(C)c(N2CCN(S(=O)(=O)c3c(C)nn(-c4ccc(F)cc4)c3C)CC2)c1 [Compound 4AA],< 4.70
3,Cc1c(S(=O)(=O)N2CCCN(c3ccc(=O)n(-c4ccc(F)cc4)n3)CC2)cnn1C(F)F [Compound 4AG],< 4.70
4,Cc1nn(-c2ccc(F)cc2)c(C)c1S(=O)(=O)N1CCN(c2ccccn2)CC1 [Compound 4AB],< 4.70
5,Cc1cccc(-c2cc(N3CCN(S(=O)(=O)c4ccc(C)cc4C)CC3)ncn2)c1 [Compound 4R],< 4.70
6,Cc1c(S(=O)(=O)N2CCN(c3ccc(=O)n(-c4ccc(F)cc4)n3)CC2)cnn1C(F)F [Compound 4AJ],< 4.70
7,Cc1ccc(-c2cc(N3CCN(S(=O)(=O)c4ccc(C)cc4C)CC3)ncn2)cc1 [Compound 4U],< 4.70

# System: FOXC2-HMLER cells
# Experiment: Confocal imaging of thymidine synced FOXC2-HMLER cells at metaphase
# Type: cell-based, human
# Conditions: not given
# From the text: Because Compound 1 induces a hyper-phosphorylated VIM phenotype, we sought to determine if Compound 1's engagement of VIM might interfere at an alternative stage of mitosis. We therefore performed time course confocal imaging studies of Compound 1 treated FOXC2-HMLER cells after their release from thymidine blocking-based cell cycle synchronization.
# Compound 1 treatment also disrupted the ability of β-tubulin to faithfully form the fine spindle microtubules of the mitotic spindle, instead resulting in a compressed phenotype with radiating projections connecting unaligned chromosomes. To assess the uniqueness of this phenotype, we evaluated the metaphase phenotypes of other chemical inhibitors which have shown to alter mitotic progression. These included inhibitors of centromere-associated protein E (CENP-E, also called kinesin-7, GSK92395), kinesin spindle protein (KSP, also called Eg5, Ispinesib), polo like kinases (PLK1/2/3, BI2536), and aurora kinases (AURKA/B/C, VX-680).
SMILES,VIM filamentous structure at metaphase,chromosome alignment to the metaphase plate
CC(C)Oc1ccc(C(=O)N[C@H](CNC(=O)CN(C)C)Cc2ccc(-c3cn4cccc([C@H](C)O)c4n3)cc2)cc1Cl [GSK92395],did not induce VIM filamentous collapse,unaligned chromosome phenotype

# Source: patent publication US11759461B2, “Small molecule inhibitors of cancer stem cells and mesenchymal cancer types” (The Scripps Research Institute, priority 2017, dated 2023)
